Assay results: patent US10499641B2 (priority 2010, dated 2019)

How the values were obtained:
[1] = test system: Phytophthora infestans; type: in vivo; settings: young tomato plants, sprayed, active ingredient concentration 100 ppm, inoculated 1 day after treatment, evaluation 7 days after inoculation; 100% = no infection
[2] = test system: Plasmopara viticola; experiment: Plasmopara test (grapevine)/protective; type: in vivo; settings: young grapevine plants, sprayed, active ingredient concentration 10 ppm, evaluation 6 days after inoculation; 100% = no infection
Protocol: Plasmopara Test (Grapevine)/Protective
• Solvent: 24.5 parts by weight of acetone • 24.5 parts by weight of dimethylacetamide • Emulsifier: 1 part by weight of alkylaryl polyglycol ether
[To produce an appropriate active ingredient formulation, 1 part by weight of active ingredient is mixed with the specified amounts of solvent and emulsifier, and the concentrate is diluted with water to the desired concentration.
To test for protective efficacy, young plants are sprayed with the active ingredient formulation at the stated application rate. After the spray coating has dried on, the plants are inoculated with an aqueous spore suspension of Plasmopara viticola and then remain in an incubation cabin at approx. 20° C. and 100% relative air humidity for 1 day. Subsequently, the plants are placed in a greenhouse at approx. 21° C. and approx. 90% air humidity for 4 days. The plants are then moistened and placed in an incubation cabin for 1 day.
Evaluation follows 6 days after the inoculation. 0% means an efficacy which corresponds to that of the control, whereas an efficacy of 100% means that no infection is observed.
In this test, the following inventive compounds show, at an active ingredient concentration of 10 ppm, an efficacy of 70% or more: […]

Work on `CON=Cc1ccccc1C1CC(c2csc(C3CCN(C(=O)Nc4cc(Cl)ccc4C)CC3)n2)=NO1` (stereo not drawn) [Example I-41, N-(5-Chloro-2-methylphenyl)-4-[4-(5-{2-[(methoxyimino)methyl]phenyl}-4,5-dihydro-1,2-oxazol-3-yl)-1,3-thiazol-2-yl]piperidine-1-carboxamide] yielded an Eff. % [1] of 100% and an Eff. % [2] of 81%.

`Cc1cc(C(F)(F)F)nn1CC(=O)N1CCC(c2nc(C3=NOC(c4cccc(F)c4OS(=O)(=O)C4CC4)C3)cs2)CC1` (stereo not drawn) [Example I-114] gave an Eff. % [1] of 94% and an Eff. % [2] of 100%.

With `O=C(Cn1nc(C(F)F)cc1C(F)F)N1CCC(c2nc(C3=NOC(c4ccccc4OS(=O)(=O)C(F)(F)F)C3)cs2)CC1` (stereo not drawn) [Example I-115] the Eff. % [1] was 88% and the Eff. % [2] was 100%.

With `Cc1cc(C(F)(F)F)nn1CC(=O)N1CCC(c2nc(C3=NOC(c4ccccc4OS(=O)(=O)C(F)(F)F)C3)cs2)CC1` (stereo not drawn) [Example I-125] the Eff. % [1] was 89% and the Eff. % [2] was 100%.

Molecule `C/C=C/C(=O)Oc1ccccc1C1CC(c2csc(C3CCN(C(=O)Cn4nc(C(F)F)cc4C(F)F)CC3)n2)=NO1` (stereo not drawn) [Example I-82] has an Eff. % [1] of 70% and an Eff. % [2] of 94%.

`Cc1ccc(Cl)cc1NC(=O)N1CCC(c2nc(C3=NOC(c4c(Cl)cccc4OS(C)(=O)=O)C3)cs2)CC1` (stereo not drawn) [Example I-54] showed an Eff. % [1] of 94% and an Eff. % [2] of 100%.

`C#CCOCc1ccccc1C1CC(c2csc(C3CCN(C(=O)Cn4nc(C(F)(F)F)cc4C)CC3)n2)=NO1` (stereo not drawn) [Example I-46] showed an Eff. % [1] of 94% and an Eff. % [2] of 94%.

Work on `CSCOc1ccccc1C1CC(c2csc(C3CCN(C(=O)Cn4nc(C(F)(F)F)cc4C)CC3)n2)=NO1` (stereo not drawn) [Example I-120] yielded an Eff. % [1] of 89% and an Eff. % [2] of 95%.

Molecule `O=C(Oc1ccccc1C1CC(c2csc(C3CCN(C(=O)Cn4nc(C(F)F)cc4C(F)F)CC3)n2)=NO1)c1ccccc1` (stereo not drawn) [Example I-131] has an Eff. % [1] of 100% and an Eff. % [2] of 94%.

`CS(=O)(=O)Oc1c(F)cccc1C1CC(c2csc(C3CCN(C(=O)Cn4nc(C(F)F)cc4C(F)F)CC3)n2)=NO1` (stereo not drawn) [Example I-85] showed an Eff. % [1] of 75% and an Eff. % [2] of 100%.

Work on `Cc1ccc(Cl)cc1NC(=O)N1CCC(c2nc(C3=NOC(c4ccccc4C=NO)C3)cs2)CC1` (mixture of isomers) [Example I-36] yielded an Eff. % [1] of 100% and an Eff. % [2] of 100%.

Molecule `CON=Cc1ccccc1C1CC(c2csc(C3CCN(C(=O)Cn4nc(C(F)(F)F)cc4C)CC3)n2)=NO1` (stereo not drawn) [Example I-34] has an Eff. % [1] of 100% and an Eff. % [2] of 87%.

`CON=C(C)c1cccc(C2CC(c3csc(C4CCN(C(=O)Nc5cc(Cl)ccc5C)CC4)n3)=NO2)c1` (mixture of isomers) [Example I-23] was tested, and the Eff. % [1] was 100% and the Eff. % [2] was 98%.

Work on `C#CCOCc1ccccc1C1CC(c2csc(C3CCN(C(=O)Cn4nc(C(F)F)cc4C(F)F)CC3)n2)=NO1` (stereo not drawn) [Example I-53] yielded an Eff. % [1] of 94% and an Eff. % [2] of 96%.

For `CN(C)C(=S)c1ccccc1C1CC(c2csc(C3CCN(C(=O)Cn4nc(C(F)F)cc4C(F)F)CC3)n2)=NO1` (stereo not drawn) [Example I-127], the Eff. % [1] was 97% and the Eff. % [2] was 96%.

In the case of `CON=C(C)c1cccc(C2CC(c3csc(C4CCN(C(=O)Cn5nc(C(F)F)cc5C(F)F)CC4)n3)=NO2)c1` (mixture of isomers) [Example I-21], the Eff. % [1] is reported as 100% and the Eff. % [2] is reported as 100%.

Work on `CC(=NO)c1cccc(C2CC(c3csc(C4CCN(C(=O)Cn5nc(C(F)F)cc5C(F)F)CC4)n3)=NO2)c1` (mixture of isomers) [Example I-18] yielded an Eff. % [1] of 100% and an Eff. % [2] of 100%.

Work on `O=CNc1ccccc1C1CC(c2csc(C3CCN(C(=O)Cn4nc(C(F)F)cc4C(F)F)CC3)n2)=NO1` (stereo not drawn) [Example I-108] yielded an Eff. % [1] of 100% and an Eff. % [2] of 93%.

Work on `CCON=Cc1ccccc1C1CC(c2csc(C3CCN(C(=O)Cn4nc(C(F)F)cc4C(F)F)CC3)n2)=NO1` (mixture of isomers) [Example I-27] yielded an Eff. % [1] of 100% and an Eff. % [2] of 99%.

Work on `N#CCN(C=O)c1ccccc1C1CC(c2csc(C3CCN(C(=O)Cn4nc(C(F)F)cc4C(F)F)CC3)n2)=NO1` (stereo not drawn) [Example I-121] yielded an Eff. % [1] of 100% and an Eff. % [2] of 98%.

`C#CCOCc1ccccc1C1CC(c2csc(C3CCN(C(=O)Cn4nc(C(F)F)cc4C(F)F)CC3)n2)=NO1` (stereo not drawn) [Example I-138] gave an Eff. % [1] of 93% and an Eff. % [2] of 98%.

Molecule `O=C(Oc1ccccc1C1CC(c2csc(C3CCN(C(=O)Cn4nc(C(F)F)cc4C(F)F)CC3)n2)=NO1)c1ccccc1F` (stereo not drawn) [Example I-130] has an Eff. % [1] of 100% and an Eff. % [2] of 100%.

Work on `CON=Cc1ccccc1C1CC(c2csc(C3CCN(C(=O)Cn4nc(C(F)F)cc4C(F)F)CC3)n2)=NO1` (stereo not drawn) [Example I-26, 2-{3-[2-(1-{[3,5-Bis(difluoromethyl)-1H-pyrazol-1-yl]acetyl}piperidin-4-yl)-1,3-thiazol-4-yl]-4,5-dihydro-1,2-oxazol-5-yl}benzaldehyde O-methyloxime] yielded an Eff. % [1] of 100% and an Eff. % [2] of 100%.

In the case of `CC(=O)OCc1ccccc1C1CC(c2csc(C3CCN(C(=O)Cn4nc(C(F)(F)F)cc4C)CC3)n2)=NO1` (stereo not drawn) [Example I-47], the Eff. % [1] is reported as 94% and the Eff. % [2] is reported as 90%.

With `O=C(Cn1nc(C(F)F)cc1C(F)F)N1CCC(c2nc(C3=NOC(c4cccc(OS(=O)(=O)C5CC5)c4)C3)cs2)CC1` (stereo not drawn) [Example I-83] the Eff. % [1] was 98% and the Eff. % [2] was 94%.

`O=CNc1ccccc1C1CC(c2csc(C3CCN(C(=O)Nc4cc(C(F)F)ccc4C(F)F)CC3)n2)=NO1` (stereo not drawn) [Example I-122] gave an Eff. % [1] of 97% and an Eff. % [2] of 89%.

`CSCOc1ccccc1C1CC(c2csc(C3CCN(C(=O)Cn4nc(C(F)F)cc4C(F)F)CC3)n2)=NO1` (stereo not drawn) [Example I-112] was tested, and the Eff. % [1] was 94% and the Eff. % [2] was 100%.

With `CON=Cc1cccc(C2CC(c3csc(C4CCN(C(=O)Cn5nc(C(F)(F)F)cc5C)CC4)n3)=NO2)c1` (mixture of isomers) [Example I-15] the Eff. % [1] was 100% and the Eff. % [2] was 81%.

`CC(=O)OCc1ccccc1C1CC(c2csc(C3CCN(C(=O)Cn4nc(C(F)F)cc4C(F)F)CC3)n2)=NO1` (stereo not drawn) [Example I-55] was tested, and the Eff. % [1] was 94% and the Eff. % [2] was 92%.

Molecule `O=C(Cn1nc(C(F)F)cc1C(F)F)N1CCC(c2nc(C3=NOC(c4cccc(C=NO)c4)C3)cs2)CC1` (mixture of isomers) [Example I-22] has an Eff. % [1] of 100% and an Eff. % [2] of 100%.

`CCS(=O)(=O)Oc1cccc(C2CC(c3csc(C4CCN(C(=O)Cn5nc(C(F)F)cc5C(F)F)CC4)n3)=NO2)c1` (stereo not drawn) [Example I-77] gave an Eff. % [1] of 98% and an Eff. % [2] of 93%.

`Cc1cc(C(F)F)nn1CC(=O)N1CCC(c2nc(C3=NOC(c4ccccc4OCC#N)C3)cs2)CC1` (stereo not drawn) [Example I-76] was tested, and the Eff. % [1] was 100% and the Eff. % [2] was 93%.

With `CON=C(C)c1ccccc1C1CC(c2csc(C3CCN(C(=O)Cn4nc(C(F)(F)F)cc4C)CC3)n2)=NO1` (mixture of isomers) [Example I-31] the Eff. % [1] was 100% and the Eff. % [2] was 97%.

For `CON=C(C)c1ccccc1C1CC(c2csc(C3CCN(C(=O)Cn4nc(C(F)F)cc4C(F)F)CC3)n2)=NO1` (mixture of isomers) [Example I-32], the Eff. % [1] was 100% and the Eff. % [2] was 85%.

`O=C(Cn1nc(C(F)F)cc1C(F)F)N1CCC(c2nc(C3=NOC(c4ccccc4OS(=O)(=O)C4CC4)C3)cs2)CC1` (stereo not drawn) [Example I-64] was tested, and the Eff. % [1] was 100% and the Eff. % [2] was 100%.

`C[Si](C)(C)C#Cc1ccccc1C1CC(c2csc(C3CCN(C(=O)Cn4nc(C(F)F)cc4C(F)F)CC3)n2)=NO1` (stereo not drawn) [Example I-133] gave an Eff. % [1] of 100% and an Eff. % [2] of 85%.
